The Papp is a coefficient for how fast a substance crosses the barrier. Broadly, the logP is a log measure of how a compound divides between an organic and an aqueous phase. One may read the pEC50 as the EC50 on a negative log10 scale, so that one unit is a factor of ten. Read a low pEC50 as a high EC50.

The text below walks through data of patent US9102648B1, “Bioavailable diacylhydrazine ligands for modulating the expression of exogenous genes via an ecdysone receptor complex” (Intrexon Corporation, priority 2003, dated 2015).

A short description of data set [1]: Bi-directional permeability, CACO-2. In kind it is in vitro ADME. Conditions: human, Caco-2, Papp × 10^−6 cm/s (plate certification). As to the method:
(§1) Caco-2 monolayers were grown to confluence on collagen-coated, microporous, polycarbonate membranes in 12-well Costar Transwell plates. Details of the plates and their certification are shown below. The permeability assay buffer was Hank's Balanced Salt Solution containing 10 mM HEPES and 15 mM glucose at a pH of 7.0±0.2. The dosing solution concentration was 10 μM in assay buffer. At each time point, 1 and 2 hours, a 200-μL aliquot was taken from the receiver chamber and replaced with fresh assay buffer. Cells were dosed on the apical side (A-to-B) or basolateral side (B-to-A) and incubated at 37° C. with 5% CO2 and 90% relative humidity. Each determination was performed in duplicate. The important experimental parameters are outlined below. Permeability through a cell-free (blank) membrane was studied to determine non-specific binding and free diffusion of the compound through the device. Lucifer yellow flux was also measured for each monolayer after being subjected to the test compounds to ensure no damage was inflicted to the cell monolayers during the flux period.
(§2) All samples were assayed by LC/MS using electrospray ionization. Typical LC/MS conditions are as follows:
(§3) dCr/dt is the cumulative concentration in the receiver compartment versus time in M s^−1.
(§4) Vr is the volume of the receiver compartment in cm^3.
(§5) Vd is the volume of the donor compartment in cm^3.
(§6) A is the area of the cell monolayer (1.13 cm^2 for 12-well Transwell).
(§7) C0 is the concentration of the dosing solution in M.
(§8) Cr^final is the cumulative receiver concentration in M at the end of the incubation period.
(§9) Cd^final is the concentration of the donor in M at the end of the incubation period.
For orientation: Caco-2 monolayers are a common model of the intestinal barrier.

The next data set deals with Caco-2 monolayers. The experiment in a line: Bi-directional permeability, CACO-2. In kind it is in vitro ADME. As to the method: as §1, §2, §3, §4, §5, §6, §7, §8, §9
Data set [2] in a line: Partition coefficient Log (D), 1-octanol / pH 7.4 buffer. In kind it is physicochemical. As to the method: The partition coefficient, Log (D), between water-saturated 1-octanol and pH 7.4 buffer was determined for the test compounds. The buffer was prepared as described in section 2. A 12 μl aliquot of a 10 mM stock solution in DMSO was introduced to a vial containing 0.60 mL of octanol and 0.60 mL of buffer at room temperature. Testosterone was also added to a final concentration of 100 μM as an internal control. The solution was vortexed for 60 minutes and centrifuged at 10,000 rpm for 10 minutes. The organic and aqueous layers were removed. Serial dilutions of the organic layer were made with 50% methanol except for the initial dilution, which was made in 100% methanol. Serial dilutions of the aqueous layer were made in the pH 7.4 buffer. The diluted samples were then assayed by LC/MS for the compound as well as for testosterone. The Log of the ratio of peak area responses was calculated to obtain the Log (D). Typical Log D values for testosterone are from 3.0-3.3.

Data set [3] has as its target T1, Bombyx mori EcR (VP16 fusion, CVBE switch construct) (Bombyx mori, UniProt P49881).
T1 sequence (P49881 86-606): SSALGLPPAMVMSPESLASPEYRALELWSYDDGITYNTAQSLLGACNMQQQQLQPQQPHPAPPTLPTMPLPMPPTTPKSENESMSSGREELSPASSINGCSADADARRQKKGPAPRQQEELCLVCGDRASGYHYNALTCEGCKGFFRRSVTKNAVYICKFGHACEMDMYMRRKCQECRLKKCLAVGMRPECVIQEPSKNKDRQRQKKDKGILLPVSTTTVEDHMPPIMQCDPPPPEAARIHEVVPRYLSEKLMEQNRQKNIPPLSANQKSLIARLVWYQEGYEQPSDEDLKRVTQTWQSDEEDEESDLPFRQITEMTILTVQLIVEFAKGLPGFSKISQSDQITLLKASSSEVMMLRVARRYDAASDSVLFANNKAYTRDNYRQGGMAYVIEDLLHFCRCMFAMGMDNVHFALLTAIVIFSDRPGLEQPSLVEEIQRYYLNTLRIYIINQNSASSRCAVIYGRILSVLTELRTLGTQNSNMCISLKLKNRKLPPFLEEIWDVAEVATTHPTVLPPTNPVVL
T1 sequence (P19793 1-462 partner): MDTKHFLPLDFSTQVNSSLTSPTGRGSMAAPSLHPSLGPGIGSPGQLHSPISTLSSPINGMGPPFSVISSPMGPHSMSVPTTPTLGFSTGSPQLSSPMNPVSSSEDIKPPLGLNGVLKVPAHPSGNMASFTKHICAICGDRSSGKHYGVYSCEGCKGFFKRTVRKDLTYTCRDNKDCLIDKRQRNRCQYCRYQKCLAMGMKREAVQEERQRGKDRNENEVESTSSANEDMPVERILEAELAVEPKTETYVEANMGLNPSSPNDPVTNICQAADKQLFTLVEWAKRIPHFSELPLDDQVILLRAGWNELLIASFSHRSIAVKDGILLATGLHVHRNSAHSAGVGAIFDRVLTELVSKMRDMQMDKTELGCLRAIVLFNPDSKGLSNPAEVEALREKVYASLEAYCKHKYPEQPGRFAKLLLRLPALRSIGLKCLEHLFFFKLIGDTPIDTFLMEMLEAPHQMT
The experiment in a line: Z3 Assay (HEK-293 cells with CVBE and 6XEcRE LacZ, β-galactosidase reporter). The following applies: 33 uM ligand; ligand treated / DMSO treated cells; average of two wells.

Data set [4] is described as follows: Aqueous equilibrium solubility in pH 7.4 buffer. The following applies: pH 7.4 aqueous buffer, room temperature, equilibrium.
Procedure: Equilibrium solubility was measured in pH 7.4 aqueous buffer. The buffer was prepared by adjusting the pH of a 0.07 M solution of NaH2PO4 to pH 7.4 with 10 N NaOH. […] At least 1 mg of powder was combined with 1 mL of buffer to make >1 mg/mL mixture. These samples were shaken for ≧2 hours and left to stand overnight at room temperature. The samples were then filtered through a 0.45-μm Nylon syringe filter that was first saturated with the sample. The filtrate was sampled twice, consecutively. The filtrate was assayed by HPLC against standards prepared in methanol.
The nature of data set [5]: Determination of LC Log P (experimental). The data set is classed as physicochemical. Conditions: diacylhydrazine log P standards (log P known experimentally). The protocol: Liquid chromatography retention times (RT) are measured for each substance using the conditions described below. A linear equation is derived relating RT to log P is developed from the data for the log P standards. The log P for the test compound is calculated from the log P/retention time equation.

The target of data set [6] is GAL4 DBD (1-147)-CfEcR(DEF)/VP16AD-βRXREF-LmUSPEF (Choristoneura fumiferana, UniProt O77240). The experiment in a line: cell-based. The following applies: for 27-63 assay Rel Max FI: maximum fold induction at any concentration relative to that of GS-E ligand, CHO 27-63 cells; for fold induction at 33 µM: read-out: Fold Induction, 27-63 Assay, 33 uM.
Data set [7] deals with mutated ecdysone receptor-based gene switch. Briefly: In vivo SEAP induction, ligand by IP injection. Set-up: species or system C57BL/6 mouse. The following applies: IP 26 nmol ligand. The protocol:
Applicants' ligands are useful in various applications including gene therapy, expression of proteins of interest in host cells, production of transgenic organisms, and cell-based assays. In vivo induction of a reporter enzyme with various ligands of the present invention was evaluated in a C57BL/6 mouse model system containing a gene switch.
Each element of the gene switch was on a separate plasmid. Receptor expression was under the control of a CMV promoter (SEQ ID NO: 15). Induction was evaluated by the amount of reporter protein expressed in the presence of ligand.
SEAP expression in serum of mice was evaluated after electroporation of the gene switch into mouse quadriceps. Mice were anesthetized with 2 μL/g of a mixture of ketamine (100 mg/mL) and xylazine (20 mg/mL). Animals were then shaved, DNA vectors injected into the muscle in a volume of 2×50 μL polyglutamic acid (12 mg/mL water), electrode conductivity gel applied, and an electrode caliber (1 cm×1 cm; model 384) was placed on hind leg. The muscle was electroporated with 200 V/cm, 8 times, for 20 msec/pulse, at 1 sec time intervals. The transverse electrical field direction was reversed after the animals received half of the pulses. Electroporation was performed with an ECM 830 electroporator from BTX Molecular Delivery Systems.
In some experiments mice received an intraperitoneal injection (IP) of 2.6 μmol of ligand in 50 μL of DMSO 3 days after electroporation of the gene switch. In other experiments the concentration of ligand was decrease to 26 nmol/50 μL of DMSO/mouse. SEAP expression was evaluated 2-11 days after ligand administration. In other experiments ligand was administered in rodent chow. The chow was prepared by dissolving 2 g of ligand in 20 mL of acetone and adding it to 1 kg of LabDiet 5010 autoclavable chow from Purina Mills. This was thoroughly mixed in a Hobart mixer and then mixed for an additional 15 min in a Cross Blend mixer. Animals received chow ad libitum for 1, 2, or 3 days. All values are the average from four animals. Background SEAP in sera from animals treated with vector alone without ligand addition was 0-11 ng/mL serum.
Mouse serum was obtained by centrifugation of blood acquired by retroorbital bleeding with a small glass capillary tube. SEAP quantification was determined using a Clontech Great Escape chemiluminescence kit and by comparison with the Clontech SEAP standard.
Table 9: In vivo evaluation of ligand-mediated induction of a mutated ecdysone receptor-based gene switch. SEAP expression in serum of mice was evaluated after electroporation of the gene expression cassettes into mouse quadriceps. Mice received an IP injection of 2.6 μmol of ligand 3 days after electroporation. SEAP expression was evaluated 2-11 days after ligand administration. Each dose group was composed of four animals. Percentage of GS™-E ligand induction was determined by averaging SEAP expression from four animals divided by the average SEAP expression induced with GS™-E ligand and then multiplying by 100.
Table 10: Induction of gene switch expression with low concentrations of ligand. SEAP expression in serum of mice was evaluated after electroporation of the gene expression cassettes into mouse quadriceps. Mice received an IP injection of 26 nmol of ligand or 130 nmol GS™-E ligand 3 days after electroporation. SEAP expression was evaluated 2-7 days after ligand administration. Values are the average from 4 animals.

pEC50: −log10 of the molar value.

As to `CC(C)NCC(O)COc1cccc2ccccc12` (stereo not shown) [Propranolol, reference compound], the Papp in data set [1] is 20 ×10⁻⁶ cm/s. The “Papp × 10^−6 cm/s (plate certification)” value in the data set with Caco-2 monolayers (human, Caco-2) is 19 10^−6 cm/s.

As to `CC(O)c1ccc(C(=O)NN(C(=O)c2cc(CO)cc(CO)c2)C(C)(C)C)cc1` (stereo not shown) [RG-100021], in data set [2] (water-saturated 1-octanol / pH 7.4 buffer, room temperature), the “Log(D) Octanol/pH 7.4” value came out at 0.8. Also, in the data set on Caco-2 monolayers (Caco-2), the “Papp Blank” value is recorded as 43.0 10^−6 cm/s; the “Papp, A-to-B Avg” value is 0.22 10^−6 cm/s; the “Papp, A-to-B Rep. 1” value was 0.21 10^−6 cm/s; the “Papp, A-to-B Rep. 2” value was 0.22 10^−6 cm/s. Moreover, in the data set with Caco-2 monolayers (Caco-2), the “Papp, B-to-A Avg” value is on record as 0.93 10^−6 cm/s; the “Papp, B-to-A Rep. 1” value was 0.91 10^−6 cm/s; the “Papp, B-to-A Rep. 2” value is reported as 0.95 10^−6 cm/s; the “Significant Efflux” value was “No”. For the same compound, the “Fold Induction, Z3 Assay, 33 uM” value in data set [3] came out at 1. For the same compound, the “Solubility pH 7.4” value in data set [4] was “≧1.0 mg/mL”.

For `Cc1cc(C)cc(C(=O)N(NC(=O)c2cccc(O)c2C)C(C)(C)C)c1` [RG-102208, reference compound], in data set [5], the logP came out at 2.9.

Turning to `CCc1c(C(=O)NN(C(=O)c2ccc(F)cc2Cl)C(C)(C)C)ccc2c1OCOC2` [RG-115002, reference compound], the logP in data set [5] was 3.5.

As to `CCc1ccc(C(=O)NN(C(=O)c2cc(Cl)cc(Cl)c2)C(C)(C)C)c(F)c1` [RG-115372, reference compound], the logP in data set [5] worked out at 5.02.

Consider `CCC(N(NC(=O)c1ccc2c(c1C)OCCO2)C(=O)c1cc(OC)c(C)c(OC)c1)C(C)(C)C` (stereo not shown) [RG-115857, 3,5-Dimethoxy-4-methyl-benzoic acid N-(1-ethyl-2,2-dimethyl-propyl)-N′-(5-methyl-2,3-dihydro-benzo[1,4]dioxine-6-carbonyl)-hydrazide], for which, in data set [6], the pEC50 is 7.89, the “27-63 assay Rel Max FI” value amounted to 1.140 and the fold induction at 33 µM turned out to be 328. In data set [7], the “Secreted Alkaline Phosphatase Day 2” value was found to be 574 ng/ml mouse sera and the “Secreted Alkaline Phosphatase Day 3” value turned out to be 401 ng/ml mouse sera.

With `CCc1c(C(=O)NN(C(=O)c2cc(C)cc(C)c2)C(CC)C(C)(C)C)ccc2c1OCCO2` (stereo not shown) [RG-115858, 3,5-dimethyl-benzoic acid N′-(5-ethyl-2,3-dihydro-benzo[1,4]dioxine-6-carbonyl)-N-(1-ethyl-2,2-dimethyl-propyl)-hydrazide], in data set [6], the pEC50 was 8.30, the “27-63 assay Rel Max FI” value came to 0.915 and the fold induction at 33 µM is 182. Further, in data set [7], the “Secreted Alkaline Phosphatase Day 2” value was 13,661 ng/ml mouse sera and the “Secreted Alkaline Phosphatase Day 3” value was 11,820 ng/ml mouse sera.

As to `CCCC(N(NC(=O)c1ccc2c(c1C)OCCO2)C(=O)c1cc(C)cc(C)c1)C(C)(C)C` (stereo not shown) [RG-115864, 3,5-Dimethyl-benzoic acid N-(1-tert-butyl-butyl)-N′-(5-methyl-2,3-dihydro-benzo[1,4]dioxine-6-carbonyl)-hydrazide], in data set [6], the pEC50 is 8.40, the “27-63 assay Rel Max FI” value is listed as 0.979 and the fold induction at 33 µM came out at 1260. Moreover, in data set [7], the “Secreted Alkaline Phosphatase Day 2” value is given as 6,722 ng/ml mouse sera and the “Secreted Alkaline Phosphatase Day 3” value was 5,652 ng/ml mouse sera.

Take `C[C@]12CC[C@H]3[C@@H](CCC4=CC(=O)CC[C@@]43C)[C@@H]1CC[C@@H]2O` [testosterone, Testosterone, reference compound]: in data set [2] (internal control, octanol / pH 7.4 buffer, read-out: Typical Log D values), the logD was 3 to 3.3.

On to Lucifer Yellow [reference compound], for which the “Papp × 10^−6 cm/s (plate certification)” value in the data set on Caco-2 monolayers (Caco-2 plate TW12, first certification column (seed date Jun. 11, 2002)) is listed as 0.14 10^−6 cm/s; in the data set with Caco-2 monolayers (Caco-2 plate TW12, second certification column (seed date Jun. 18, 2002)), 0.12 10^−6 cm/s.
